Reference: US12728137B2, “Methods of treating cancer with a combination of mithramycin and immunotherapy” (University of South Florida, priority 2019, dated 2026)

Test system: CT26 cells
Assay: CT26 cell viability with TGFβI and/or Mit-A (CellTiter-Glo)
Assay type: cell-based, mouse
Conditions: LY2109761 (5 μM) and/or 150 nM Mit-A for 48 hrs; FIG. 9
Protocol: FIG. 9 depicts a bar graph of cell viability assayed by CellTiter-Glo of CT26 cells that were cultured in the presence of TGFβI, LY2109761 (5 μM) and/or 150 nM Mit-A for 48 hrs.
Mit-A potentiates the inhibitory effects of transforming growth factor β (TGFβ): TGFβ activated stroma is one of the defining features of MSS CRCs^33. […] However, inhibition of TGFβ in these tumors induced a potent anti-tumor response. Since Sp1 is implicated in TGFβ induced tumor invasion, whether inhibition of TGFβ signaling will promote sensitization of CT26 cells to Mit-A was examined.

## c1ccc(-c2nn3c(c2-c2ccnc4cc(OCCN5CCOCC5)ccc24)CCC3)nc1 [LY2109761]
  CT26 cell viability: did not inhibit
